pKd: −log10 of the molar value.
Key:
[1] = Inhibition of [3H]nitrendipine binding to L-type calcium channel in guinea pig ventricular myocardium membranes
[2] = as above; remark: listed apart in the source

| pKd [1] | pKd [2] | Compound |
| --- | --- | --- |
| 7.92 |  | CSC1=NC(c2cccc([N+](=O)[O-])c2)C(C(=O)OC(C)C)=C(C)N1 (configuration not stated) |
|  | 7.64 | CCOC(=O)C1C(C)=NC(SC)=NC1c1cccc([N+](=O)[O-])c1 (configuration not stated) |
| 5.47 |  | CCOC(=O)C1=C(C)NC(N(C)C)=NC1c1cccc([N+](=O)[O-])c1 (configuration not stated) |
| 6.98 |  | CCOC(=O)C1=C(C)N=C(OC)NC1c1cccc([N+](=O)[O-])c1 (configuration not stated) |
| 6.92 |  | COC(=O)C1=C(C)N=C(SC)NC1c1cccc([N+](=O)[O-])c1 (configuration not stated) |
| 7.46 |  | CCOC(=O)C1=C(C)NC(SC)=NC1c1ccccc1C(F)(F)F (configuration not stated) |
| 8.59 |  | CCC(C)OC(=O)C1=C(C)NC(SC)=NC1c1cccc([N+](=O)[O-])c1 (configuration not stated) |

Source: BindingDB's records for doi:10.1021/jm00167a035 (Squibb Institute For Medical Research, 1990)
